“Also recorded” adds a separate entry of the source. Like-named read-outs stand apart in the source and are kept apart here. Values belong to the compound of their own block, whether it stands above or below them. Peptide text beside a SMILES is read from it.
How the values were obtained:
[1] = Solubility measurements / aggregation points of AQGV salts
Excerpt: At first attempts were made to mix a solution of the free base and an acid in order to achieve a concentrated DMSO solution of the salt and subsequently dilute this in water in order to determine solubility. […] It was decided to determine the solubility of the salts required by dilution of known amount of salts (not soluble) till a clear solution is obtained.

[2] = tested on: patients undergoing on-pump coronary artery bypass grafting (CABG); assay: EASI phase II study: safety, adverse events; assay type: in vivo, human
Experimental: During cardiac surgery, 180 patients received (double-blinded, placebo-controlled, randomized) 90 mg/kg/hour EA-230 or placebo. The primary endpoint was safety. Efficacy was assessed by immunomodulation (plasma interleukin (IL)-6 concentrations), renal function (glomerular filtration rate using iohexol and creatinine [GFRiohexol, eGFRMDRD] and the incidence of acute kidney injury [AKI, RIFLE criteria]), cardiovascular effects (fluid balance, vasoactive agents) and general outcome (length-of-stay).
A prospective, randomized, double-blind, placebo-controlled study was performed in which 180 elective patients, undergoing on-pump coronary artery bypass grafting, with or without concomitant valve surgery, were enrolled. Patients were randomized in a 1:1 ratio and received either EA-230, 90 mg/kg/hour, or a placebo. These were infused at the start of the surgical procedure until the end of the use of the cardiopulmonary bypass. The main focus in this first-in-patient study was on safety and tolerability of EA-230. The primary efficacy endpoint was the modulation of the inflammatory response by EA-230 quantified as the change in interleukin-6 plasma concentrations after surgery. A key secondary endpoint was the effect of EA-230 on renal function.
The present study was a single-center, prospective, double-blind, placebo-controlled, randomized, single-dose phase II study. It has an adaptive design to evaluate the safety and immunomodulatory effects of EA-230 in patients undergoing on-pump cardiac surgery for coronary artery bypass grafting (CABG) with or without concomitant valve surgery. 180 eligible patients were included and were randomized to receive either active or placebo treatment in a 1:1 ratio. This was a first-in-patient safety and tolerability study, of which the primary efficacy objective was to assess the immunomodulatory effects of EA-230. The key-secondary efficacy endpoint was the effect of EA-230 on renal function. This study was described in accordance with the Standard Protocol Items: Recommendations for Interventional Trial (SPIRIT) guidelines, and registered at clinicaltrials.gov under number NCT03145220.
(§1) Intravenous infusion of EA-230, 90 mg/kg/hour, or placebo, was initiated at the moment of first surgical incision using an automated infusion pump. Infusion rate was set at 250 ml/hour, and infusion was continued until cessation of the CPB, or after 4 hours of continuous infusion, whichever comes first.
All AEs were judged by the investigators with regard to severity (“mild, moderate, or severe”) according to Common Terminology Criteria for Adverse Events guidelines 4.030 and their perceived relation to the study drug (“definitely, probably, possibly, or unrelated/unlikely to be related”). SAEs or SUSARs include death, life-threatening disease, persistent and/or significant disability and/or incapacity, and hospitalization and/or prolongation of inpatient hospitalization.

[3] = EASI phase II study: pharmacokinetics; assay type: in vivo; conditions: human; for Cmax: in vivo, iv, 90 mg/kg, Phase II trial, 90 mg/kg/hour i.v. infusion
Experimental: as §1

[4] = 90 mg/kg/hour i.v. during CABG surgery

Compound: CC(C)[C@H](NC(=O)CNC(=O)[C@H](CCC(N)=O)NC(=O)[C@H](C)N)C(=O)O [AQGV-citrate] (H-AQGV-OH)
Behaviour of highly concentrated solution ([1]; 0.9% NaCl, listed as Citric acid): does not crystallize or aggregate but tend to form a highly viscous solution | Behaviour of highly concentrated solution ([1]; 0.9% NaCl, listed as citric acid): remains clear but got very thick/viscous | Solubility in DMSO ([1]; free base mixed with acid in DMSO): did not dissolve in DMSO at all | Total amount dissolved (clear solution) ([1]; in 0.5 mL 0.9% NaCl): 2.75 mmol

Compound: CC(C)[C@H](NC(=O)CNC(=O)[C@H](CCC(N)=O)NC(=O)[C@H](C)N)C(=O)O [EA-230, AQGV] (H-AQGV-OH)
Adverse events compared with placebo [2, 4]: less (serious) adverse events and less mayor clinical adverse events | Patients suffering from (adverse) fluid retention compared with placebo [2, 4]: significantly less patients suffering from fluid retention; also recorded: significant reduction of adverse fluid retention | AE of mild intensity: (%) of patients ([2]; EASI-study, N = 91): (83.5) % | AE of mild intensity: e (number of events) ([2]; EASI-study, N = 91): 188 | AE of mild intensity: n (number of patients experiencing the event) ([2]; EASI-study, N = 91): 76 | AE of moderate intensity: (%) of patients ([2]; EASI-study, N = 91): (24.2) % | AE of moderate intensity: e (number of events) ([2]; EASI-study, N = 91): 23 | AE of moderate intensity: n (number of patients experiencing the event) ([2]; EASI-study, N = 91): 22 | AE of severe intensity: (%) of patients ([2]; EASI-study, N = 91): (5.5) % | AE of severe intensity: e (number of events) ([2]; EASI-study, N = 91): 6 | AE of severe intensity: n (number of patients experiencing the event) ([2]; EASI-study, N = 91): 5 | Anemia: (%) of patients ([2]; EASI-study, N = 91): (5.5) % | Anemia: e (number of events) ([2]; EASI-study, N = 91): 5 | Anemia: n (number of patients experiencing the event) ([2]; EASI-study, N = 91): 5 | Any AE: (%) of patients ([2]; EASI-study, N = 91): (85.7) % | Any AE: n (number of patients experiencing the event) ([2]; EASI-study, N = 91): 78 | Any SAE: (%) of patients ([2]; EASI-study, N = 91): (13.2) % | Any SAE: e (number of events) ([2]; EASI-study, N = 91): 23 | Any SAE: n (number of patients experiencing the event) ([2]; EASI-study, N = 91): 12 | Any SUSAR: (%) of patients ([2]; EASI-study, N = 91): (0) % | Any SUSAR: e (number of events) ([2]; EASI-study, N = 91): 0 | Any SUSAR: n (number of patients experiencing the event) ([2]; EASI-study, N = 91): 0 | Blood and lymphatic system disorders, Overall: (%) of patients ([2]; EASI-study, N = 91): (5.5) % | Blood and lymphatic system disorders, Overall: e (number of events) ([2]; EASI-study, N = 91): 6 | Blood and lymphatic system disorders, Overall: n (number of patients experiencing the event) ([2]; EASI-study, N = 91): 5 | Delirium: (%) of patients ([2]; EASI-study, N = 91): (5.5) % | Delirium: e (number of events) ([2]; EASI-study, N = 91): 5 | Delirium: n (number of patients experiencing the event) ([2]; EASI-study, N = 91): 5 | Fluid retention: (%) of patients ([2]; EASI-study, N = 91): (2.2) % | Fluid retention: e (number of events) ([2]; EASI-study, N = 91): 2 | Gastrointestinal disorders, Overall: (%) of patients ([2]; EASI-study, N = 91): (23.1) % | Gastrointestinal disorders, Overall: e (number of events) ([2]; EASI-study, N = 91): 27 | Gastrointestinal disorders, Overall: n (number of patients experiencing the event) ([2]; EASI-study, N = 91): 21 | Hemorrhagic diathesis: (%) of patients ([2]; EASI-study, N = 91): (1.1) % | Hemorrhagic diathesis: e (number of events) ([2]; EASI-study, N = 91): 1 | Hemorrhagic diathesis: n (number of patients experiencing the event) ([2]; EASI-study, N = 91): 1 | Infections and infestations, Overall: (%) of patients ([2]; EASI-study, N = 91): (14.3) % | Infections and infestations, Overall: e (number of events) ([2]; EASI-study, N = 91): 15 | Infections and infestations, Overall: n (number of patients experiencing the event) ([2]; EASI-study, N = 91): 13 | Metabolism and nutrition disorders, Overall: (%) of patients ([2]; EASI-study, N = 91): (11) % | Metabolism and nutrition disorders, Overall: e (number of events) ([2]; EASI-study, N = 91): 10 | Metabolism and nutrition disorders, Overall: n (number of patients experiencing the event) ([2]; EASI-study, N = 91): 10 | Nausea: (%) of patients ([2]; EASI-study, N = 91): (16.5) % | Nausea: e (number of events) ([2]; EASI-study, N = 91): 15 | Nausea: n (number of patients experiencing the event) ([2]; EASI-study, N = 91): 15 | Psychiatric disorders, Overall: (%) of patients ([2]; EASI-study, N = 91): (9.9) % | Psychiatric disorders, Overall: e (number of events) ([2]; EASI-study, N = 91): 9 | Psychiatric disorders, Overall: n (number of patients experiencing the event) ([2]; EASI-study, N = 91): 9 | Renal and urinary disorders, Overall: (%) of patients ([2]; EASI-study, N = 91): (4.4) % | Renal and urinary disorders, Overall: e (number of events) ([2]; EASI-study, N = 91): 4 | Renal and urinary disorders, Overall: n (number of patients experiencing the event) ([2]; EASI-study, N = 91): 4 | Safety and tolerability ([2]; continuous infusion 90 mg/kg/hour up to 4 hours, elective CABG surgery): safe and No safety concerns emerged and well tolerated and showed an excellent safety profile | Time to clearance from the circulation when infusion is terminated [3]: 5 to 10 min | Cmax ([3]; read-out: Arterial Cmax, range): 12.5 to 57.5 µg/mL | Cmax ([3]; read-out: Mean arterial Cmax): 30.5 µg/mL | Cmax ([3]; read-out: Mean venous Cmax): 68.4 µg/mL | Cmax ([3]; read-out: Venous Cmax, range): 19.6 to 113 µg/mL

Compound: adenosine
Clear solution on adding 0.9% NaCl ([1]; 1 or 0.5 mmol salt, small amounts of 0.9% NaCl added): no clear solution could be obtained

Solubility compared to AQGV-Ac ([1]; 0.9% NaCl): lower solubility
Compound: O=C(O)/C=C\C(=O)O [maleic acid]

Clear solution on adding 0.9% NaCl [1]: no clear solution could be obtained
Compound: Nc1ncnc2c1ncn2[C@@H]1O[C@H](COP(=O)(O)O)[C@@H](O)[C@H]1O [adenosine-monophosphate]
